Laboratory results from patent publication US5358951A, “Angiotensin II receptor blocking 2, 3, 6 substituted quinazolinones” (American Cyanamid Company, priority 1993, dated 1994).

Test system: vasopressor response of angiotensin II
Experiment: AII Challenge: antagonism of angiotensin II vasopressor response;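 as to Response Average Change: post-dose Angiotensin II-evoked rise in systolic blood pressure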
Format: in vivo
Conditions: for inhibition in vivo at 3 mg/kg / inhibition in vivo at 10 mg/kg: Rattus norvegicus, iv
From the text: Conscious Male Okamoto-Aoki SHR, 16-20 weeks old, weighing approximately 330 g are purchased from Charles River Labs (Wilmington, Mass.). Conscious rats are restrained in a supine position with elastic tape. The area at the base of the tail is locally anesthetized by subcutaneous infiltration with 2% procaine. The ventral caudal artery and vein are isolated, and a cannula made of polyethylene (PE) 10-20 tubing (fused together by heat) is passed into the lower abdominal aorta and vena cava, respectively. The cannula is secured, heparinized (1,000 I.U./ml), sealed and the wound is closed. The animals are placed in plastic restraining cages in an upright position. The cannula is attached to a Statham P23 Db pressure transducer, and pulsatile blood pressure is recorded to 10-15 minutes with a Gould Brush recorder. (Chan et al., (Drug Development Res., 18:75-94, 1989). Angiotensin II (human sequence, Sigma Chem. Co., St. Louis, Mo.) of 0.05 and 0.1 ug/kg i.v. is injected into all rats (predosing response). Then a test compound, vehicle or a known angiotensin II antagonist is administered i.v., i.p. or orally to each set of rats. The two doses of angiotensin II are given to each rat again at 30, 60, 90, 120, 180, 240 and 300 minutes post dosing the compound or vehicle. The vasopressor response of angiotensin II is measured for the increase in systolic blood pressure in mmHg. The percentage of antagonism or blockade of the vasopressor response of angiotensin II by a compound is calculated using the vasopressor response (increase in systolic blood pressure) of angiotensin II of each rat predosing the compound as 100%.

CCCCc1nc2ccc([C@@H]3C[C@H]4CCCCN4O3)cc2c(=O)n1Cc1ccc(-c2ccccc2-c2nnn[nH]2)cc1 (relative stereo) [Example 60, (Cis)-2-Butyl-6-(hexahydro-2H-isoxazolo[2,3-a]pyridin-2-yl)-3-[[2'-(1H-tetrazol-5-yl)-[1,1'-biphenyl]-4-yl]methyl]-4(3H)-quinazolinone] was tested, and the “Response Average Change” value (3 mg/kg I.V., AII 0.05 mcg/kg IV, 240 min post dose) was 15 mmHg, the “Response Average Change” value (3 mg/kg I.V., AII 0.05 mcg/kg IV, 300 min post dose) was 15 mmHg and the “Response Average Change” value (3 mg/kg I.V., AII 0.1 mcg/kg IV, 240 min post dose) was 18.5 mmHg. The “Response Average Change” value (3 mg/kg I.V., AII 0.1 mcg/kg IV, 300 min post dose) was 30 mmHg, the “Response Average Change” value (10 mg/kg I.V., AII 0.05 mcg/kg IV, 30 min post dose) was 0 mmHg and the “Response Average Change” value (10 mg/kg I.V., AII 0.05 mcg/kg IV, 60 min post dose) was 7.5 mmHg. For the same compound, the “Response Average Change” value (10 mg/kg I.V., AII 0.05 mcg/kg IV, 90 min post dose) was 14 mmHg, the “Response Average Change” value (10 mg/kg I.V., AII 0.05 mcg/kg IV, 120 min post dose) was 9.5 mmHg and the “Response Average Change” value (10 mg/kg I.V., AII 0.05 mcg/kg IV, 180 min post dose) was 12.5 mmHg. For the same compound, the “Response Average Change” value (10 mg/kg I.V., AII 0.05 mcg/kg IV, 240 min post dose) was 17 mmHg, the “Response Average Change” value (10 mg/kg I.V., AII 0.05 mcg/kg IV, 300 min post dose) was 12.5 mmHg and the “Response Average Change” value (10 mg/kg I.V., AII 0.1 mcg/kg IV, 30 min post dose) was 0 mmHg. For the same compound, the “Response Average Change” value (10 mg/kg I.V., AII 0.1 mcg/kg IV, 60 min post dose) was 7.5 mmHg, the “Response Average Change” value (10 mg/kg I.V., AII 0.1 mcg/kg IV, 90 min post dose) was 15 mmHg and the “Response Average Change” value (10 mg/kg I.V., AII 0.1 mcg/kg IV, 120 min post dose) was 12.5 mmHg. The “Response Average Change” value (10 mg/kg I.V., AII 0.1 mcg/kg IV, 180 min post dose) was 21.5 mmHg, the “Response Average Change” value (10 mg/kg I.V., AII 0.1 mcg/kg IV, 240 min post dose) was 12.5 mmHg and the “Response Average Change” value (10 mg/kg I.V., AII 0.1 mcg/kg IV, 300 min post dose) was 22.5 mmHg. For the same compound, the inhibition in vivo at 3 mg/kg (0.5 h, 3 mg/kg I.V., AII 0.05 mcg/kg IV, 30 min post dose) was 80%, the inhibition in vivo at 3 mg/kg (0.5 h, 3 mg/kg I.V., AII 0.1 mcg/kg IV, 30 min post dose) was 69% and the inhibition in vivo at 10 mg/kg (0.5 h, 10 mg/kg I.V., AII 0.05 mcg/kg IV, 30 min post dose) was 100%. The inhibition in vivo at 10 mg/kg (0.5 h, 10 mg/kg I.V., AII 0.1 mcg/kg IV, 30 min post dose) was 100%, the inhibition in vivo at 3 mg/kg (1 h, 3 mg/kg I.V., AII 0.05 mcg/kg IV, 60 min post dose) was 73% and the inhibition in vivo at 3 mg/kg (1 h, 3 mg/kg I.V., AII 0.1 mcg/kg IV, 60 min post dose) was 79%. For the same compound, the inhibition in vivo at 10 mg/kg (1 h, 10 mg/kg I.V., AII 0.05 mcg/kg IV, 60 min post dose) was 82%, the inhibition in vivo at 10 mg/kg (1 h, 10 mg/kg I.V., AII 0.1 mcg/kg IV, 60 min post dose) was 85% and the inhibition in vivo at 3 mg/kg (2 h, 3 mg/kg I.V., AII 0.05 mcg/kg IV, 120 min post dose) was 73%. For the same compound, the inhibition in vivo at 3 mg/kg (2 h, 3 mg/kg I.V., AII 0.1 mcg/kg IV, 120 min post dose) was 56%, the inhibition in vivo at 10 mg/kg (2 h, 10 mg/kg I.V., AII 0.05 mcg/kg IV, 120 min post dose) was 77% and the inhibition in vivo at 10 mg/kg (2 h, 10 mg/kg I.V., AII 0.1 mcg/kg IV, 120 min post dose) was 74%. It also gave an inhibition in vivo at 3 mg/kg (3 h, 3 mg/kg I.V., AII 0.1 mcg/kg IV, 180 min post dose) of 44%, an inhibition in vivo at 10 mg/kg (3 h, 10 mg/kg I.V., AII 0.05 mcg/kg IV, 180 min post dose) of 70% and an inhibition in vivo at 10 mg/kg (3 h, 10 mg/kg I.V., AII 0.1 mcg/kg IV, 180 min post dose) of 56%. It also gave an inhibition in vivo at 3 mg/kg (4 h, 3 mg/kg I.V., AII 0.05 mcg/kg IV, 240 min post dose) of 59%, an inhibition in vivo at 3 mg/kg (4 h, 3 mg/kg I.V., AII 0.1 mcg/kg IV, 240 min post dose) of 49% and an inhibition in vivo at 10 mg/kg (4 h, 10 mg/kg I.V., AII 0.05 mcg/kg IV, 240 min post dose) of 59%. The inhibition in vivo at 10 mg/kg (4 h, 10 mg/kg I.V., AII 0.1 mcg/kg IV, 240 min post dose) was 74%, the inhibition in vivo at 3 mg/kg (5 h, 3 mg/kg I.V., AII 0.05 mcg/kg IV, 300 min post dose) was 59% and the inhibition in vivo at 3 mg/kg (5 h, 3 mg/kg I.V., AII 0.1 mcg/kg IV, 300 min post dose) was 18%. For the same compound, the inhibition in vivo at 10 mg/kg (5 h, 10 mg/kg I.V., AII 0.05 mcg/kg IV, 300 min post dose) was 70%, the inhibition in vivo at 10 mg/kg (5 h, 10 mg/kg I.V., AII 0.1 mcg/kg IV, 300 min post dose) was 54% and the inhibition in vivo at 3 mg/kg ([…], 3 mg/kg I.V., AII 0.05 mcg/kg IV, 90 min post dose) was 73%. For the same compound, the inhibition in vivo at 10 mg/kg ([…], 10 mg/kg I.V., AII 0.05 mcg/kg IV, 90 min post dose) was 66% and the inhibition in vivo at 10 mg/kg ([…], 10 mg/kg I.V., AII 0.1 mcg/kg IV, 90 min post dose) was 69%.
